Data from US20230279379A1, “METHODS AND MICROFLUIDIC DEVICE FOR PRODUCING EXTRACELLULAR VESICLES” (THE BOARD OF TRUSTEES OF THE UNIVERSITY OF ILLINOIS, priority 2022, published 2023).

Tests used:
[1] = tested on: CD63-K2S^+ MVBs in D1 mouse MSCs; test: Intracellular CD63-K2S+ MVB transport by TIRF microscopy; type: cell-based; details: Arp2/3 inhibition by CK869
Source text: Lentiviral-Mediated Expression of CD63 Fused with Fluorescent Proteins. Katushka2S (far-red fluorescent protein) was fused with CD63 in a lentiviral expression vector (CD63-K2S vector) and expressed in D1 MSCs according to known methods. The sequence for pHLuorin2 (pH-sensitive green fluorescent protein) was synthesized by GenScript and exchanged with the Katushka2S in the same vector using restriction enzyme cloning. The resulting CD63-pHLuorin2 lentiviral vector was transduced in D1 MSCs in a similar method as the CD63-K2S vector. Cells were selected by treatment with 5 μg/mL puromycin over 3 days and confirmed to express fluorescent signal versus non-transduced cells.
Total Internal Reflection Fluorescence (TIRF) Imaging of Cells on Substrates. To covalently bond crosslinked PEG-DA hydrogel to a thin glass surface, acrylate groups were attached to glass coverslips by silanization. […]
CD63-Katushka2S Data Analysis. […] Intracellular bodies were determined using Gaussian smoothing and local background intensity thresholding (with automatically determined thresholds) to detect surfaces followed by tracking their position (x, y) over time (t). […] Multivescular body (MVB) area was computed for each time t and reported as the mean area across total track time T. Tracks were then analyzed via a custom MATLAB (R2017b, MathWorks) program. Track MSD was calculated as […]

[2] = tested on: F-actin in MSCs; test: Confocal imaging of F-actin in cells on hydrogels; type: cell-based; details: CK869 for 2 hours; cell adhesion for 4 hours
Method: Sample Preparation for Imaging of F-Actin in Cells on Hydrogels. To prepare samples for F-actin imaging, glass bottom dishes (No 0., 35 mm; MatTek) were silanized, and a thin layer of PEG-DA hydrogel with varied elasticity was formed as described above. After cell seeding on hydrogels and culturing cells in the presence of DMSO or CK869, cells were permeabilized with 0.0015% saponin (Sigma) in a cytoskeleton buffer (10 mM MES, pH 6.0, 150 mM NaCl, 5 mM EGTA, 5 mM glucose, and 5 mM MgCl2) for 4 minutes at room temperature. The samples were then washed with the cytoskeleton buffer 3 times and fixed with 4% paraformaldehyde in the cytoskeleton buffer for 20 minutes at room temperature. After washing 3 times with the cytoskeleton buffer, the samples were reduced in 0.1% sodium borohydride in PBS for 20 minutes at room temperature. To label F-actin in cells, the samples were stained with a fluorescent stain sold under the tradename ALEXA FLUOR® 488 phalloidin (1:1000; Cayman) for confocal imaging or ALEXA FLUORO 647 phalloidin (1:10000; Cayman) for super-resolution imaging in PBS with 3% BSA for 40 minutes at room temperature. The samples were washed 3 times with PBS prior to imaging.
Confocal Imaging of F-actin. […] A mean projection image was created from each confocal stack, and average intensity ALEXA FLUOR® 488 phalloidin per cell was analyzed by ImageJ (NIH). […]

With COc1ccc(N2C(=O)CSC2c2cccc(Br)c2)c(OC)c1 (stereo not drawn) [CK869] the “transport exponent α” value [1] was ~0.5, the “MVB transport (tracks, <MSD> vs t, D0.4s)” value ([1]; soft and stiff substrate) was “significantly enhanced transport on either substrate” and the “mean intensity of phalloidin-labelled F-actin signal per cell” value [2] was “decrease the signal intensity on both substrates”.
